“Also recorded” adds a separate entry of the source. Where no end group is shown, it is not given here.
Assays:
[1] = test system: COS-1 cells transfected with PRLR; experiment: Immunofluorescence of phage binding and internalization into COS-1 cells transfected with PRLR; format: cell-based; conditions: 10^9 TU phage
Experimental: (§1) Immunolocalization Immunofluorescent detection of PRLR expression in COS-1 cells was performed by using anti-PRLR antibody MAI-610 (Affinity Bioreagents) diluted to 20 μg/ml and a secondary FITC-conjugated goat anti-mouse antibody F-0257 (Sigma) at 1 100 dilution. For validating phage binding and internalization into COS-1 cells transfected with PRLR, 10^9 TU of phage displaying PRLR-binding or mutant peptides were subjected to cell binding and internalization as described (Zurita et al, 2004). Immunodetection of cell-associated phage was performed with anti-fd antibody B-7786 (Sigma) at 1 500 dilution and a secondary Cy3-conjugated donkey anti-rabbit antibody 711-165-152 (Jackson) at 3 μg/ml. For phage-peptide immunolocalization in situ, 10^10 TU of iv-injected phage were let circulate for 5 min. Immunohistochemistry on formalin-fixed, paraffin-embedded mouse tissue sections was performed as described (Paqualini et al, 2001, Arap et al, 2002) by using anti-fd antibody B-7786 at 1 1,000 dilution and the LSAB+ peroxidase kit (DAKO)

[2] = test system: COS-1 cells transfected with PRLR; experiment: Phage binding to COS-1 cells transfected with PRLR (BRASIL); format: cell-based; conditions: for Binding of phage to PRLR-transfected COS-1 cells (in words) / Isolation by biopanning on cell-surface expressed PRLR: BRASIL; for Binding of phage to PRLR-transfected COS-1 cells (in words): FIG. 5A-5B; for Isolation by biopanning on cell-surface expressed PRLR: pancreas-homing phage pool (rounds 2 and 3), single round
Experimental: (§2) Phage-peptide binding to PRLR To identify peptides binding to PRLR, phage clones isolated from the pancreas in rounds 2 and 3 of the screening were individually amplified and pooled. For panning on immobilized PRLR, 10^9 TU of the mixed phage clones were incubated overnight at 4° C. with […] of purified recombinant rabbit PRLR (Protein Laboratories Rehovot, Israel), or BSA control, immobilized on plastic. Unbound phage were extensively washed off with PBS, and then the bound phage were recovered by infecting host K91 E. coli directly on the plate. For panning on cell surface-expressed PRLR, COS-1 cells (ATCC) were transiently transfected with pECE-PRLR as described (Wang et al, 1997) and subjected to biopanning with the amplified pancreas-isolated phage using the BRASIL protocol (Giordano et al, 2001). In each biopanning, bound phage were selected for tetracycline resistance, quantified by infecting host K91 E. coli and sequenced. […] Phage displaying forward (CRVASVLPC) (SEQ ID NO 30), reverse CPLVSAVRC(SEQ ID NO 34), and the alanine point mutants were titered in-parallel with insertless fd-tet phage and tested for binding to COS-1 cells transfected with PRLR by using the BRASIL method (Giordano et al, 2001). COS-1 cells not transfected with PRLR served as a negative control.

[3] = biological target: T1, purified recombinant rabbit PRLR (Oryctolagus cuniculus, UniProt P14787); experiment: Panning of pancreas-homing phage on immobilized PRLR (BSA control); format: binding; conditions: pancreas-homing phage pool (rounds 2 and 3), single round
T1 construct: purchased Protein Laboratories Rehovot, Israel
T1 sequence (P14787 25-234 limits assumed): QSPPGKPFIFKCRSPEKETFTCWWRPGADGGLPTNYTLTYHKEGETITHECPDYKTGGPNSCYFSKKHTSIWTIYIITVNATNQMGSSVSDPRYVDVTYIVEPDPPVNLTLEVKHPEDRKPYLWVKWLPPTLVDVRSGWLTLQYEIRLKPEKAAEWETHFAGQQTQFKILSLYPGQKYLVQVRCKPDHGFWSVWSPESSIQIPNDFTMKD
Experimental: as §2

skeletal muscle = experiment: Anti-phage immunohistochemistry after iv phage injection, skeletal muscle; format: in vivo, mouse
Experimental: as §1

Pancreas = experiment: Anti-phage immunohistochemistry after iv phage injection, pancreas; format: in vivo, mouse
Experimental: as §1

[4] = biological target: PRLR (prolactin receptor) expressed on the surface of COS-1 cells transfected with pECE-PRLR; experiment: phage binding to prlR-transfected COS-1 cells
Sequence of PRLR (prolactin receptor) expressed on the surface of COS-1 cells transfected with pECE-PRLR (P05710 20-610): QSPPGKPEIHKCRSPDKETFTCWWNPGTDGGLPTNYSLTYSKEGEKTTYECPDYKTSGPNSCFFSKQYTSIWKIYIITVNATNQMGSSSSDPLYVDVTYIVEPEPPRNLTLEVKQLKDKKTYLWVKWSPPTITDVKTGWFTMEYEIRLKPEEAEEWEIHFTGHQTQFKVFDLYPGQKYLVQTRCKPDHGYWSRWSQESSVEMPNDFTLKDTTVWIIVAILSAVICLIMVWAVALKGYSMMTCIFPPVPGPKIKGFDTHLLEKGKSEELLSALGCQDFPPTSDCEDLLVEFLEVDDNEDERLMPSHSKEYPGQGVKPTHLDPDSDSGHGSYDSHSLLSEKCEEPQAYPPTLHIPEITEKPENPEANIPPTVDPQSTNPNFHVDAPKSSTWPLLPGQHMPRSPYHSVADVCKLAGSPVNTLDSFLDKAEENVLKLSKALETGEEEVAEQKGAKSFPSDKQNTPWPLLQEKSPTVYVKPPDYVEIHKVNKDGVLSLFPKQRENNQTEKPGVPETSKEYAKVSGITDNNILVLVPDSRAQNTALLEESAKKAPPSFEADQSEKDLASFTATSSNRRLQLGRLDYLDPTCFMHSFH

[5] = biological target: PRLR (prolactin receptor) expressed on the surface of COS-1 cells transfected with pECE-PRLR; experiment: phage binding to PRLR-transfected COS-1 cells, BRASIL

CPLVSAVRC
Phage binding, internalization and co-localization with PRLR-expressing cells [1]: bound and internalized specifically by cells expressing PRLR
Binding of phage to PRLR-transfected COS-1 cells (in words) [2]: did not significantly decrease its binding to PRLR

VFSDYKR (not fully specified)
Isolation by biopanning on in vitro immobilized PRLR [3]: isolated by biopanning on both in vitro immobilized and cell-surface expressed PRLR
Isolation by biopanning on cell-surface expressed PRLR [2]: isolated by biopanning on both in vitro immobilized and cell-surface expressed PRLR

CYAIGSFDC (phage-displayed) [control muscle-homing phage clone displaying …]
Phage localization in skeletal muscle (skeletal muscle): found predominantly in the vasculature of skeletal muscle; also recorded: found predominantly in the vasculature of the skeletal muscle
Phage localization in pancreas (Pancreas): but not in the pancreas

LPTLSLN (not fully specified)
Isolation by biopanning on in vitro immobilized PRLR [3]: isolated by biopanning on both in vitro immobilized and cell-surface expressed PRLR
Isolation by biopanning on cell-surface expressed PRLR [2]: isolated by biopanning on both in vitro immobilized and cell-surface expressed PRLR

SGPTGRA (not fully specified)
Isolation by biopanning on in vitro immobilized PRLR [3]: isolated by biopanning on both in vitro immobilized and cell-surface expressed PRLR
Isolation by biopanning on cell-surface expressed PRLR [2]: isolated by biopanning on both in vitro immobilized and cell-surface expressed PRLR

CRVASVLPC [tested as phage clone]
Phage localization in skeletal muscle (skeletal muscle): but not to skeletal muscle
Phage binding, internalization and co-localization with PRLR-expressing cells [1]: co-localized; also recorded: bound and internalized specifically by cells expressing PRLR
Phage localization in pancreas (Pancreas): localized to pancreatic blood vessels and the islets of Langerhans; also recorded: to pancreatic blood vessels and the pancreatic islet cells
Binding of phage to PRLR-transfected COS-1 cells (in words) [2]: Specific binding
Binding of phage to COS-1 cells transfected with prlR relative to background binding by controls ([2]; controls: muscle-homing phage or insertless phage): five
Binding of phage to COS-1 cells transfected with PRLR relative to nonspecific binding to non-transfected COS-1 cells ([2]; negative control: non-transfected COS-1 cells, FIG. 5A): 9 fold

QVHSSAY (not fully specified)
Isolation by biopanning on in vitro immobilized PRLR [3]: isolated by biopanning on both in vitro immobilized and cell-surface expressed PRLR
Isolation by biopanning on cell-surface expressed PRLR [2]: isolated by biopanning on both in vitro immobilized and cell-surface expressed PRLR

SGATGRA (not fully specified)
Isolation by biopanning on in vitro immobilized PRLR [3]: isolated by biopanning on both in vitro immobilized and cell-surface expressed PRLR
Isolation by biopanning on cell-surface expressed PRLR [2]: isolated by biopanning on both in vitro immobilized and cell-surface expressed PRLR

B1: …-phage (phage displaying the … motif, SEQ ID NO 30) (peptide, part only; not given: phage coat protein, part only)
peptide, part: CRVASVLPC
modifications: not fully specified (bridges); cysteine pairing not given here; also: displayed on filamentous phage (fUSE5)
fold binding over control phage (muscle-homing or insertless) [4]: 5 fold
fold binding over non-transfected COS-1 cells [5]: 9 fold

— patent publication US20090221505A1, “COMPOSITIONS AND METHODS RELATED TO SYNCHRONOUS SELECTION OF HOMING PEPTIDES FOR MULTIPLE TISSUES BY IN VIVO PHAGE DISPLAY” (priority 2004, published 2009)
